Series [1] concerns recombinant purified SERCA1a (recS1a). As to the kind of experiment: Limited proteolysis with proteinase K (SDS-PAGE). As to conditions: DDM-solubilized SR; 5 min profile similar to 60 min in native lipids. The format is biochemical, rabbit (expressed in S. cerevisiae). The method, then: Yeast-expressed and purified SERCA1a (recS1a) was supplemented with SLN at a mole:mole ratio of 1:10 recS1a:SLN. In absence of SLN, recS1a was supplemented with 0.07 mg/mL C12E8, an amount that corresponds to the detergent brought with chemically synthesized SLN. After 30 min at 20 °C, samples were supplemented with either 1.1 mM EGTA (Ca^2+free ~ 1 mM), or 50 mM EGTA (Ca^2+free ~ 150 nM) and 0.01 mg/mL Tg. After an additional incubation for 10 min at 20 °C, proteolysis was achieved by addition of 0.3 mg/mL proteinase K. Proteolysis was stopped by addition of 1 mM PMSF and incubation on ice for 10 min. After proteolysis arrest, samples were diluted twice in a 4 M-urea containing denaturation buffer, boiled for 60 s, and about 0.75 µg protein were loaded on a 9% SDS-PAGE prepared in the presence of 1 mM Ca^2+[32]. After electrophoresis, gels were stained with Coomassie blue.

For series [2], the target named is T1, recombinant SERCA1a (recS1a) (Oryctolagus cuniculus, UniProt P04191).
T1 construct: BAD (biotin acceptor domain) (C, cleaved yes); made in house; host or cells: Saccharomyces cerevisiae
T1 sequence (P04191 1-994 isoform P04191-2): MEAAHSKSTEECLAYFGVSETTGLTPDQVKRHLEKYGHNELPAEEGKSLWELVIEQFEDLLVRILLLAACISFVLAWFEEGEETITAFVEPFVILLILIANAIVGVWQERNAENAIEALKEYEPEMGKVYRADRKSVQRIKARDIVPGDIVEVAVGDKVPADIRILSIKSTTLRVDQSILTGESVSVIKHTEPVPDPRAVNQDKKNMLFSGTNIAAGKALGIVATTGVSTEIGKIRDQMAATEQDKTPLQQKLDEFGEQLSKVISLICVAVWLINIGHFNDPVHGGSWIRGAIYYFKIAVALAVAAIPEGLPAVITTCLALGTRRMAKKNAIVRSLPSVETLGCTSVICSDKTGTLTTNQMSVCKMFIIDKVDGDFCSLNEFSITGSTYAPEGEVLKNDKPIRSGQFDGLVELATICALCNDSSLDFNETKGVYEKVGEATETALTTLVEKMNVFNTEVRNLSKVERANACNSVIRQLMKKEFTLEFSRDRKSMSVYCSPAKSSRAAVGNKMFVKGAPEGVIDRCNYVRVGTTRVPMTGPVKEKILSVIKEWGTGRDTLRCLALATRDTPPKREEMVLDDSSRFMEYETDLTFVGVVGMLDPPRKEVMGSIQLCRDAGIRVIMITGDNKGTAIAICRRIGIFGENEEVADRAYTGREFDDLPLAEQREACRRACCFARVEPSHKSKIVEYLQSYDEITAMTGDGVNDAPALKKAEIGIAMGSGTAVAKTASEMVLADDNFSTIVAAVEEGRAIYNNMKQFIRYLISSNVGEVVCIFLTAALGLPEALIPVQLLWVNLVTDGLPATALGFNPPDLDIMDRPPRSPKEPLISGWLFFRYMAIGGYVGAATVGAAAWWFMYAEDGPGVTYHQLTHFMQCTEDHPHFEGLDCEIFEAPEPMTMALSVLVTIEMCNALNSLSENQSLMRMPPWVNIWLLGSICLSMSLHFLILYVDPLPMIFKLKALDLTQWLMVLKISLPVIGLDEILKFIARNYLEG
As to the kind of experiment: Mg.ATP binding by tryptophan fluorescence. Further details: species or system rabbit (expressed in S. cerevisiae). The method, then: (§1) Intrinsic fluorescence of SERCA1a was measured with a SPEX Fluorolog spectrofluorometer (Horiba/Jobin–Yvon, Longjumeau, France) as described before. Briefly, signals were monitored with excitation and emission wavelength set at 295 and 320 nm, with bandwidths of 2 and 10 nm, respectively. Changes in tryptophan fluorescence were recorded at 20 °C after dilution of protein samples to a final concentration of about 6–7.5 µg/mL into a medium containing 50 mM MOPS-Tris pH 7, 100 mM KCl, 5 mM MgCl2, 20% glycerol (v/v) and 10 mg/mL DDM. In presence of SLN, recS1a and SLN were first mixed together and incubate for 1 h on ice before measurement. In absence of SLN, recS1a is supplemented with 0.07 mg/mL C12E8 to compensate the detergent present with SLN. The Maxchelator program was used for estimating [Ca^2+]free[59] (program available at https://somapp.ucdmc.ucdavis.edu/pharmacology/bers/maxchelator/downloads.htm). The dissociation constant of the Ca.EGTA complex was taken to be 0.4 µM at pH7 and was assumed to be the same in the presence of glycerol.

For series [3], the target named is T1, recombinant SERCA1a (recS1a). As to the kind of experiment: Calcium binding at equilibrium by tryptophan fluorescence. The note with it: absence of pSLN, average of three independent experiments. Further details: species or system rabbit (expressed in S. cerevisiae). The method, then:
as §1

The target is the same in series [4]. As to the kind of experiment: Calcium dependence of phosphoenzyme level. The format is biochemical, rabbit (expressed in S. cerevisiae). The note with it: absence of pSLN, five independent experiments. The method, then: (§2) Transient formation of the phosphoenzyme intermediate was measured after incubation with [γ^32P]ATP followed by acid quenching, and filtration. For most experiments, 50 µL of enzyme at 10 µg/mL in a buffer containing 50 mM Tes-Tris pH7.5, 1 mM KCl, 5 mM MgCl2, 20% glycerol (w/w) and 0.5 mg/mL DDM, supplemented or not with SLN, was stored on ice. Concentrations of EGTA and calcium are specified in figure legends in order to reach the appropriate [Ca^2+]free and therefore the desired starting state for the ATPase. For kinetics of phosphorylation, we initiate reaction by addition of 2 µM [γ^32P]ATP (5 mCi/µmole), and calcium at 100 µM when specified. Reaction was quenched by addition of 2 mL of cold quenching medium (500 mM TCA + 30 mM H3P0_4) under vigorous mixing, and immediately stored on ice for 20–30 min to improve precipitation, a period of time critical for retention of the precipitate on the filter in presence of detergent. This was followed by filtration on GS filters (Millipore, Saint Quentin-Fallavier, France) and careful rinsing of the filters with diluted quenching medium (50 mM TCA + 3 mM H3P0_4). The amount of radioactivity bound to the filter was estimated by liquid scintillation counting (Perkin Elmer TriCarb Counter). When starting from a calcium-deprived state (Fig. 4C,D), EGTA was added only one minute before starting phosphorylation to limit irreversible inactivation of the solubilized ATPase, although the presence of glycerol helps in protecting the enzyme from irreversible inactivation. For dephosphorylation kinetics, 1 mM “cold” Mg.ATP was added after a 30 s period of phosphorylation. For Ca^2+-dependency, we adjust the concentration of free calcium according to the Ca.EGTA constant as mentioned above, before triggering phosphorylation. […] Phosphorylations were done at 0 °C especially for inhibition by vanadate to prevent dissociation of vanadate and limit irreversible inactivation in absence of calcium.

The target is the same in series [5]. As to the kind of experiment: Steady-state ATPase activity, enzyme-coupled assay. The format is biochemical, rabbit (expressed in S. cerevisiae). As to conditions: absence of pSLN; steady state, NADH-coupled assay; three independent experiments. The method, then: resuspended in a large volume of pure water and lyophilized to evaporate most of the TFA. The rinsed powder was then suspended in presence of 10 mM HCl to exchange the anionic residual TFA that may interact with the positive charges of the peptide for chloride. This suspension was lyophilized again.
Three additional cycles of – dissolving in pure water / lyophilisation – will allow to eliminate traces of TFA and to get back to a pH compatible with functional tests. For final solubilisation of SLN in detergent, powder was then dissolved in 50% TFE and an amount of detergent to reach a 100:1 mole:mole detergent:SLN ratio. Here, we used C12E8 as it is fully compatible with functional characterization of SERCA1a 23. This suspension was then lyophilized again to evaporate TFE.
Sarcolipins (Palm-SLN or SLN) were finally resuspended at 0.8 mg/mL (about 200 µM) in a 10 mM potassium phosphate buffer pH 7.4, in the presence of 2.5 mg/mL C12E8.
Expression and Purification of recombinant SERCA1a (recS1a)
The yeast expression plasmid pYeDP60-SERCA1a-BAD (WT) and expression in Saccharomyces cerevisiae was described previously 30. Yeast membranes were solubilized by DDM for subsequent purification of recombinant Ca2+-ATPase by Streptavidin affinity chromatography 31. Purified recombinant SERCA1a was recovered in a buffer containing 50 mM MOPS-Tris pH7, 100 mM KCl, 5 mM MgCl2, 2.1 mM CaCl2, 40 % glycerol (v/v) and 0.5 mg/mL DDM, together with some thrombin remaining from the elution procedure. The protein concentration in the purified fraction was in the 0.05 to 0.15 mg/mL range depending on the batch. […]
Steady-state ATPase activity measurements
Measurements were performed using classical enzyme coupled assay. We measured the rate of NADH oxidation in the presence of 0.1 mg/mL lactate deshydrogenase, 0.05 mg/mL pyruvate kinase, 1 mM phosphoenolpyruvate, 0.25 mM NADH (protocol was adapted from 22) and in the additional presence of 2 mg/mL C12E8 to limit time-dependent inactivation of the purified SERCA1a 20,23.

The target is the same in series [6]. As to the kind of experiment: Vanadate inhibition of phosphoenzyme formation, recS1a. Format: biochemical, rabbit (expressed in S. cerevisiae). As to conditions: absence of pSLN, phosphorylation 30 s at 0 °C, three independent experiments. The method, then:
as §2

The test system of series [7] is SERCA1a. The note with it: cited from earlier work. From the text:
(§3) Besides its various roles in protein signalling and addressing, palmitoylation can also regulate oligomerisation processes of membrane proteins. Recent work has shown that other P-type ATPases regulatory subunits like phospholamban (PLB) and phospholemman (PLM) are palmitoylated[16],[17]. Acylation of PLB and PLM is functionally relevant by having an impact on the oligomerisation of the peptides, their association with their dedicated pumps (Ca^2+-ATPase or Na+, K+-ATPase, respectively) and on their lifetime.

Series [8] relates to protein phosphatase 1a (PP1a). As to conditions: cited from earlier work.
Description: as §3

The test system of another series is protein kinase A (PKA). As to conditions: cited from earlier work.
Description: as §3

The test system of series [9] is SERCA1a. The note with it: deacylation with hydroxylamine; steady state; in membrane or after solubilization by C12E8; cited from earlier work. From the text:
Effect on the turnover is less clear as it seems to highly depend on the system used for functional characterization. […] This post-translational modification is also present in pig SLN and presumably in a few other mammals and birds, as judged from the amino-acid sequences. Among the other hundred seq ...

Where “and” joins values, the source holds several entries; their conditions need not be identical. Equal values may be shown once. Ends that are not written are not given here.

Turning to `CCCCCCCCCCCCO[C@@H]1O[C@H](CO)[C@@H](O[C@H]2O[C@H](CO)[C@@H](O)[C@H](O)[C@H]2O)[C@H](O)[C@H]1O` [DDM, n-dodecyl β-D-maltopyranoside, reference compound], the “effect of detergent on proteinase K proteolysis” value in series [1] is reported as “significantly accelerates proteolysis”.
Regarding `Nc1ncnc2c1ncn2[C@@H]1O[C@H](COP(=O)(O)OP(=O)([O-])OP(=O)([O-])O)[C@@H](O)[C@H]1O.[Mg+2]` [Mg.ATP, reference compound], in [2] (absence of pSLN, calcium-deprived (2 mM EGTA), pH 7, 20 °C, DDM, 20% glycerol, three independent experiments), the “Mg-ATP1/2 (affinity for Mg.ATP), recS1a alone” value was 3 µM and 3.00 ± 0.12 µM. Also, the “nH for Mg.ATP, recS1a alone” value in [2] (absence of pSLN, three independent experiments) was 0.99 ± 0.04. The “Mg.ATP concentration sufficient to saturate the SERCA1a site” value in series [2] (in absence of SLN, not in its presence) is on record as “about 30 µM”.
In the case of `[Ca+2]` [calcium], the “Ca1/2 (tryptophan fluorescence), recS1a alone” value in series [3] (at equilibrium, pH 7, 20 °C, DDM, 20% glycerol) was 2.94 ± 0.30 µM and 2.9 µM. Besides, in [3], the “nH for calcium (tryptophan fluorescence), recS1a alone” value was 1.67+/-0.25. Moreover, in [4], the “nH for calcium (phosphoenzyme level), recS1a alone” value stood at 0.54 ± 0.02. In addition, the “Ca1/2 (phosphoenzyme level), recS1a alone” value in [4] (phosphorylation 15 s) was 0.33 ± 0.03 µM and 0.33 µM. In series [5], the “Ca1/2 (ATPase activity), recS1a alone” value amounted to 0.15 ± 0.08 µM.
`[O]=[V]([O-])([O-])[O-]` [orthovanadate, reference compound]: the “K1/2 (K0.5) for vanadate inhibition, recS1a alone” value in series [6] and in series [6] (listed as vanadate) was 1.43 ± 0.08 µM in each case.
As to “PLB: phospholamban, 52 amino-acid long, with a transmembrane helix and a long cytosolic extension”, the “effect of PLB phosphorylation on SERCA1a inhibition” value in the series with SERCA1a [7] is on record as “release of SERCA1a inhibition without its full dissociation from the pump”. The “effect of PLB palmitoylation (Cys 36) on PP1a affinity” value in series [8] is “reduces affinity for protein phosphatase 1a (PP1a)”. Also, the “effect of PLB palmitoylation (Cys 36) on PKA affinity” value in the series with protein kinase A (PKA) is “increases affinity for protein kinase A (PKA)”.
“native SLN: native rabbit sarcolipin, S-palmitoylated or S-oleoylated on Cys9, co-purified with SERCA1a from SR (MERSTRELCLNFTVVLITVILIWLLVRSYQY; also: Cys9 S-palmitoylated or S-oleoylated; UniProt P42532 1-31, looked up)”: in the series with SERCA1a [9], the “effect of deacylation of native SLN on affinity for calcium and Vmax” value is given as “no effect”.
